Patent US10376499B2, “Combination therapy for treatment of resistant bacterial infections” (priority 2014, dated 2019)
Values after ≈ are worked out from the molar mass of the structure shown.

Test system: A. baumannii
Assay: MIC by broth microdilution (CLSI), panel of 60 A. baumannii clinical isolates (Example 1)
[1] = Acinetobacter baumannii, strain ARC593, OXA-98
[2] = Acinetobacter baumannii, strain ARC2461, OXA-66, TEM-1
[3] = Acinetobacter baumannii, strain ARC2462, TEM-1, OXA-66
[4] = Acinetobacter baumannii, strain ARC2598, OXA*, TEM-1, OXA-113
[5] = Acinetobacter baumannii, strain ARC2635, OXA-65, OXA-40, TEM-1
[6] = Acinetobacter baumannii, strain ARC2636, OXA-65, OXA-40, TEM-1
[7] = Acinetobacter baumannii, strain ARC2674, SHV-5, OXA-113
[8] = Acinetobacter baumannii, strain ARC2675, SHV-5, OXA-113
[9] = Acinetobacter baumannii, strain ARC2681, OXA-40, TEM-1, OXA-132
[10] = Acinetobacter baumannii, strain ARC2682, SHV-5, OXA-113
[11] = Acinetobacter baumannii, strain ARC2777, OXA-172, TEM-1
[12] = Acinetobacter baumannii, strain ARC2778, OXA-40, TEM-1, OXA-65
[13] = Acinetobacter baumannii, strain ARC2780 (A. baumannii/calcoaceticus complex), OXA*, OXA-2, IMP-1
[14] = Acinetobacter baumannii, strain ARC2782, OXA-66, OXA-23, TEM-1, PER-1
[15] = Acinetobacter baumannii, strain ARC2788, OXA-65, TEM-1
[16] = Acinetobacter baumannii, strain ARC3484, TEM-1, OXA-23, OXA-64
[17] = Acinetobacter baumannii, strain ARC3485, OXA-82
[18] = Acinetobacter baumannii, strain ARC3486, OXA-72, OXA-66, TEM-1
[19] = Acinetobacter baumannii, strain ARC3487, OXA-20, OXA-58, OXA-66
[20] = Acinetobacter baumannii, strain ARC3488, OXA*, OXA-68
[21] = Acinetobacter baumannii, strain ARC3489, OXA*, OXA-68
[22] = Acinetobacter baumannii, strain ARC3490, TEM-1+, PSE-2, OXA-69
[23] = Acinetobacter baumannii, strain ARC3491 (A. baumannii/calcoaceticus complex), OXA-215
[24] = Acinetobacter baumannii, strain ARC3492, OXA-40, OXA-132, TEM-1
[25] = Acinetobacter baumannii, strain ARC3493, OXA-40, OXA-66
[26] = Acinetobacter baumannii, strain ARC3494, OXA-65
[27] = Acinetobacter baumannii, strain ARC3495, OXA-40, OXA-109
[28] = Acinetobacter baumannii, strain ARC3513, TEM-1, OXA-23, OXA-65
[29] = Acinetobacter baumannii, strain ARC3515, OXA-64, OXA-58
[30] = Acinetobacter baumannii, strain ARC3657, OXA-130
[31] = Acinetobacter baumannii, strain ARC3658, OXA-66, PER-1, TEM-1, OXA-23
[32] = Acinetobacter baumannii, strain ARC3659, OXA-23, OXA*
[33] = Acinetobacter baumannii, strain ARC3882, OXA-23, NDM-1, OXA-10*
[34] = Acinetobacter baumannii, strain ARC5073, OXA-23, TEM-1, OXA-64, PER-1
[35] = Acinetobacter baumannii, strain ARC5074, GES*, TEM-1, OXA-51
[36] = Acinetobacter baumannii, strain ARC5075, SHV-5, OXA-113
[37] = Acinetobacter baumannii, strain ARC5076, TEM-1, OXA-23, OXA-66
[38] = Acinetobacter baumannii, strain ARC5077, OXA*, OXA-72
[39] = Acinetobacter baumannii, strain ARC5079, OXA-72, OXA-65
[40] = Acinetobacter baumannii, strain ARC5080, OXA-71, OXA-40
[41] = Acinetobacter baumannii, strain ARC5081, OXA-94, OXA-23
[42] = Acinetobacter baumannii, strain ARC5082, OXA-66, OXA-23
[43] = Acinetobacter baumannii, strain ARC5083, OXA-66, OXA-23
[44] = Acinetobacter baumannii, strain ARC5084, IMP-4(B), OXA-58, OXA-65
[45] = Acinetobacter baumannii, strain ARC5085, OXA*, TEM-1
[46] = Acinetobacter baumannii, strain ARC5086, OXA*, TEM-1, OXA-72, OXA-66
[47] = Acinetobacter baumannii, strain ARC5087, OXA-66, OXA-23
[48] = Acinetobacter baumannii, strain ARC5088, OXA-20, OXA-58, OXA-66
[49] = Acinetobacter baumannii, strain ARC5089, PER*, TEM-1, OXA-23, OXA-66
[50] = Acinetobacter baumannii, strain ARC5091, OXA-82, OXA-23
[51] = Acinetobacter baumannii, strain ARC5092, OXA-23, OXA-64

C[C@H]1COc2c(N3CCN(C)CC3)c(F)cc3c(=O)c(C(=O)O)cn1c23 [LEVO, levofloxacin]
MIC50 (Acinetobacter baumannii): 8 µg/mL (≈ 22.1 µM) | MIC90 (Acinetobacter baumannii): 32 µg/mL (≈ 88.6 µM) | MIC [1]: 0.25 µg/mL (≈ 0.692 µM) | MIC [2]: 16 µg/mL (≈ 44.3 µM) | MIC [3]: 16 µg/mL (≈ 44.3 µM) | MIC [4]: 4 µg/mL (≈ 11.1 µM) | MIC [5]: 16 µg/mL (≈ 44.3 µM) | MIC [6]: 16 µg/mL (≈ 44.3 µM) | MIC [7]: 16 µg/mL (≈ 44.3 µM) | MIC [8]: 32 µg/mL (≈ 88.6 µM) | MIC [9]: 16 µg/mL (≈ 44.3 µM) | MIC [10]: 16 µg/mL (≈ 44.3 µM) | MIC [11]: 32 µg/mL (≈ 88.6 µM) | MIC [12]: 32 µg/mL (≈ 88.6 µM) | MIC [13]: 4 µg/mL (≈ 11.1 µM) | MIC [14]: 4 µg/mL (≈ 11.1 µM) | MIC [15]: 32 µg/mL (≈ 88.6 µM) | MIC [16]: 8 µg/mL (≈ 22.1 µM) | MIC [17]: 16 µg/mL (≈ 44.3 µM) | MIC [18]: 8 µg/mL (≈ 22.1 µM) | MIC [19]: 8 µg/mL (≈ 22.1 µM) | MIC [20]: 32 µg/mL (≈ 88.6 µM) | MIC [21]: 16 µg/mL (≈ 44.3 µM) | MIC [22]: 16 µg/mL (≈ 44.3 µM) | MIC [23]: 1 µg/mL (≈ 2.77 µM) | MIC [24]: 8 µg/mL (≈ 22.1 µM) | MIC [25]: 4 µg/mL (≈ 11.1 µM) | MIC [26]: 0.25 µg/mL (≈ 0.692 µM) | MIC [27]: 4 µg/mL (≈ 11.1 µM) | MIC [28]: 16 µg/mL (≈ 44.3 µM) | MIC [29]: 8 µg/mL (≈ 22.1 µM) | MIC [30]: 16 µg/mL (≈ 44.3 µM) | MIC [31]: 8 µg/mL (≈ 22.1 µM) | MIC [32]: 8 µg/mL (≈ 22.1 µM) | MIC [33]: 4 µg/mL (≈ 11.1 µM) | MIC [34]: 8 µg/mL (≈ 22.1 µM) | MIC [35]: 4 µg/mL (≈ 11.1 µM) | MIC [36]: 32 µg/mL (≈ 88.6 µM) | MIC [37]: 8 µg/mL (≈ 22.1 µM) | MIC [38]: 16 µg/mL (≈ 44.3 µM) | MIC [39]: 16 µg/mL (≈ 44.3 µM) | MIC [40]: 16 µg/mL (≈ 44.3 µM) | MIC [41]: 8 µg/mL (≈ 22.1 µM) | MIC [42]: 8 µg/mL (≈ 22.1 µM) | MIC [43]: > 32 µg/mL | MIC [44]: 4 µg/mL (≈ 11.1 µM) | MIC [45]: 32 µg/mL (≈ 88.6 µM) | MIC [46]: 16 µg/mL (≈ 44.3 µM) | MIC [47]: > 32 µg/mL | MIC [48]: 8 µg/mL (≈ 22.1 µM) | MIC [49]: 16 µg/mL (≈ 44.3 µM) | MIC [50]: > 32 µg/mL | MIC [51]: 8 µg/mL (≈ 22.1 µM) | MIC (strain ARC2058, OXA-95): 0.125 µg/mL (≈ 0.346 µM) | MIC (strain ARC2779 (A. baumannii/calcoaceticus complex), OXA-2, VIM-2): 0.125 µg/mL (≈ 0.346 µM)

CN(C)[C@@H]1C(O)=C(C(N)=O)C(=O)[C@@]2(O)C(O)=C3C(=O)c4c(O)cccc4[C@@](C)(O)[C@H]3C[C@@H]12 [TET, tetracycline]
MIC50 (Acinetobacter baumannii): 16 µg/mL (≈ 36 µM) | MIC90 (Acinetobacter baumannii): > 32 µg/mL | MIC [1]: 2 µg/mL (≈ 4.5 µM) | MIC (Acinetobacter baumannii, strain ARC2058, OXA-95): 1 µg/mL (≈ 2.25 µM) | MIC [2]: > 32 µg/mL | MIC [3]: > 32 µg/mL | MIC [4]: > 32 µg/mL | MIC [5]: 8 µg/mL (≈ 18 µM) | MIC [6]: 16 µg/mL (≈ 36 µM) | MIC [7]: > 32 µg/mL | MIC [8]: 16 µg/mL (≈ 36 µM) | MIC [9]: > 32 µg/mL | MIC [10]: 8 µg/mL (≈ 18 µM) | MIC [11]: 32 µg/mL (≈ 72 µM) | MIC [12]: > 32 µg/mL | MIC (Acinetobacter baumannii, strain ARC2779 (A. baumannii/calcoaceticus complex), OXA-2, VIM-2): 2 µg/mL (≈ 4.5 µM) | MIC [13]: 2 µg/mL (≈ 4.5 µM) | MIC [14]: > 32 µg/mL | MIC [15]: 4 µg/mL (≈ 9 µM) | MIC [16]: > 32 µg/mL | MIC [17]: 32 µg/mL (≈ 72 µM) | MIC [18]: > 32 µg/mL | MIC [19]: 16 µg/mL (≈ 36 µM) | MIC [20]: > 32 µg/mL | MIC [21]: > 32 µg/mL | MIC [22]: 8 µg/mL (≈ 18 µM) | MIC [23]: 4 µg/mL (≈ 9 µM) | MIC [24]: > 32 µg/mL | MIC [25]: > 32 µg/mL | MIC [26]: 2 µg/mL (≈ 4.5 µM) | MIC [27]: > 32 µg/mL | MIC [28]: 8 µg/mL (≈ 18 µM) | MIC [29]: > 32 µg/mL | MIC [30]: 8 µg/mL (≈ 18 µM) | MIC [31]: > 32 µg/mL | MIC [32]: 8 µg/mL (≈ 18 µM) | MIC [33]: 8 µg/mL (≈ 18 µM) | MIC [34]: > 32 µg/mL | MIC [35]: 1 µg/mL (≈ 2.25 µM) | MIC [36]: > 32 µg/mL | MIC [37]: > 32 µg/mL | MIC [38]: > 32 µg/mL | MIC [39]: 8 µg/mL (≈ 18 µM) | MIC [40]: 16 µg/mL (≈ 36 µM) | MIC [41]: 2 µg/mL (≈ 4.5 µM) | MIC [42]: > 32 µg/mL | MIC [43]: > 32 µg/mL | MIC [44]: 2 µg/mL (≈ 4.5 µM) | MIC [45]: > 32 µg/mL | MIC [46]: > 32 µg/mL | MIC [47]: > 32 µg/mL | MIC [48]: 16 µg/mL (≈ 36 µM) | MIC [49]: 4 µg/mL (≈ 9 µM) | MIC [50]: 32 µg/mL (≈ 72 µM) | MIC [51]: 32 µg/mL (≈ 72 µM)
